From patent US20260207614A1, “IRAK4 DEGRADERS AND USES THEREOF” (Kymera Therapeutics, Inc., priority 2022, published 2026)

Key:
[1] = Diastereomer interconversion; type: physicochemical; details: in vitro and in vivo
Description: (S,R,R)-Compound A and (R,R,R)-Compound A, which are designated as Compound B and Compound C, respectively. In some embodiments, Compound A is Compound B. In some embodiments, Compound A is Compound C. In some embodiments, Compound A is a mixture of Compound B and Compound C. […] In some embodiments, Compound A, Compound B, Compound C, or a pharmaceutically acceptable salt thereof, is amorphous. In some embodiments, Compound A, Compound B, Compound C, or a pharmaceutically acceptable salt thereof, is in crystal form.

[2] = tested on: patients with hidradenitis suppurativa (HS); details: Phase 2 and 3, week 4; cited from earlier work
[3] = tested on: patients with atopic dermatitis (AD); details: Phase 3, week 4; cited from earlier work

In the case of `Cn1c(=O)n([C@H]2CCC(=O)NC2=O)c2cccc(C#CCOC3CCN(C[C@H]4CC[C@H](n5cc(NC(=O)c6cnn7ccc(N8C[C@H]9C[C@@H]8CO9)nc67)c(C(F)F)n5)CC4)CC3)c21` [Compound B, 5-((1R,4R)-2-oxa-5-azabicyclo[2.2.1]heptan-5-yl)-N-(3-(difluoromethyl)-1-((1r,4R)-4-((4-((3-(1-((S)-2,6-dioxopiperidin-3-yl)-3-methyl-2-oxo-2,3-dihydro-1H-benzo[d]imidazol-4-yl)prop-2-yn-1-yl)oxy)piperidin-1-yl)methyl)cyclohexyl)-1H-pyrazol-4-yl)pyrazolo[1,5-a]pyrimidine-3-carboxamide], the interconversion of diastereomers [1] is reported as “interconvert rapidly”.

With `Cn1c(=O)n([C@@H]2CCC(=O)NC2=O)c2cccc(C#CCOC3CCN(C[C@H]4CC[C@H](n5cc(NC(=O)c6cnn7ccc(N8C[C@H]9C[C@@H]8CO9)nc67)c(C(F)F)n5)CC4)CC3)c21` [Compound C, 5-((1R,4R)-2-oxa-5-azabicyclo[2.2.1]heptan-5-yl)-N-(3-(difluoromethyl)-1-((1r,4R)-4-((4-((3-(1-((R)-2,6-dioxopiperidin-3-yl)-3-methyl-2-oxo-2,3-dihydro-1H-benzo[d]imidazol-4-yl)prop-2-yn-1-yl)oxy)piperidin-1-yl)methyl)cyclohexyl)-1H-pyrazol-4-yl)pyrazolo[1,5-a]pyrimidine-3-carboxamide] the interconversion of diastereomers [1] was “interconvert rapidly”.

For Adalimumab, the “Responders: AN Count 0/1/2” value [2] is listed as 28-47%^2, 3, the “Responders: HiSCR50” value [2] is listed as 29-51%^3, 4 and the “Responders: HiSCR75” value [2] is listed as 20%^4. For the same compound, the “Responders: Pain NRS30” value [2] was 39-58%^2, 3, 5 and the “ΔAN Count” value [2] was −31%^1.

In the case of Dupilumab, the “Responders: Peak Pruritis NRS, Past Week/Past 24 Hours, first value” [3] is listed as 23%, the “Responders: Peak Pruritis NRS, Past Week/Past 24 Hours, second value” [3] is listed as 40% and the ΔEASI [3] is listed as −52%^1. For the same compound, the “ΔPeak Pruritis NRS: Past Week/Past 24 Hours” value [3] was −34%^1.
